Assay results as given in patent US20200102349A1, “PEPTIDE REAGENTS AND METHODS FOR DETECTION AND TARGETING OF DYSPLASIA, EARLY CANCER AND CANCER” (THE REGENTS OF THE UNIVERSITY OF MICHIGAN, priority 2014, published 2020).

Assays:
[1] = tested on: vascular endothelial growth factor A (VEGFA); conditions: n=14 BE patients, topical and systemic; cited from earlier work
[2] = Pharmacology/toxicology study in rats, single dose oral gavage; format: in vivo; conditions: for Blood tests (days 2 and 15) / Clinical signs / Necropsy (days 2 and 15) / Observe (morbidity, mortality, injury, body weights, food and water consumption) / Urinalysis: oral gavage; for Blood tests (days 2 and 15): key: NAD: No abnormalities detected; for Clinical signs: key: NAD: No abnormalities detected; for Necropsy (days 2 and 15): key: NAD: No abnormalities detected; for Observe (morbidity, mortality, injury, body weights, food and water consumption): key: NAD: No abnormalities detected; for Urinalysis: key: NAD: No abnormalities detected
Method: A rigorous pharmacology/toxicology study was performed in animals (MPI Research) for each peptide to provide pre-clinical evidence for safety. A total of 24 male and 24 female rats (CD®[Crl:CD® (SD)] (Charles River) were used in each study. At 8 weeks of age, the animals were randomly assigned to 4 groups, including 3 treatment and 1 control. Dose levels of 0.0086, 0.026, and 0.86 mg/kg were used for QRH*-Cy5, and 0.186, 0.32, and 1.08 mg/kg were used for KSP*-IRDye800. The control group received 10 mL/kg of PBS as vehicle. The vehicle and test articles were administered by single dose oral gavage. Clinical signs, including morbidity, mortality, and injury, were monitored twice daily. Laboratory tests and necropsy were evaluated in 3 animals/sex/dose on days 2 and 15.

[3] = Stability of lyophilized cGMP peptides on storage; format: physicochemical; conditions: KSP*-IRDye800 lyophilized, −20° C.; for Molecular: molecular weight by Q-TOF
Excerpt: QRHKPRE (SEQ ID NO: 1) was labeled with Cy5 via a GGGSK (SEQ ID NO: 18) linker to prevent steric hindrance. This sequence was selected using phage display methods for specific binding to EGFR.^22 KSPNPRF (SEQ ID NO: 26) was labeled with IRDye800 via a GGGSC (SEQ ID NO: 27) linker, hereafter KSP*-IRDye800. This sequence was identified using a structural model for specific binding to ErbB2.^23 The fluorophores used were chosen to minimize spectral overlap between absorbance and emission. QRH*-Cy5 and KSP*-IRDye800 were synthesized using current good manufacturing practices (cGMP) methods. Peptide stability was monitored by visual appearance, purity (HPLC), and molecular weight over the duration of the study.

[4] = tested on: Barrett's neoplasia (HGD/EAC); test: Multiplexed in vivo imaging of distal esophagus in patients, both channels combined; set-up: species or system human; conditions: topical, 5 minutes incubation
Method: A multi-modal scanning fiber endoscope (mmSFE) was designed to collect fluorescence and reflectance concurrently. A custom fiber-coupled multi-laser system (SpectraTEC, Blue Sky Research) provides illumination at λex=638 and 785 nm concurrently through a single mode fiber (SMF) to excite QRH*-Cy5 and KSP*-IRDye800, respectively. A 0.4 mm diameter metal coated piezo tube actuator (Nagamine) generates a spiral scan pattern at an average maximum deflection angle of about 70°. […]
The optics used to separate and collect fluorescence from each peptide was contained within the base station (VerAvanti). […] Fluorescence from QRH*-Cy5 was deflected by a second beam splitter (BS2, # Di02-R785, Semrock) centered at λ=785 nm through a bandpass filter (BPF, FF01-697/58, Semrock) that transmits between 668-726 nm for detection by MPPC2. Fluorescence from KSP*-IRDye800 passes through BS2 and long pass filter (LPF, # BLP01-785R, Semrock) with cutoff at λ=805 nm and is detected by MPPC3. […]
Consecutive patients referred to Michigan Medicine for either evaluation or therapy of Barrett's neoplasia (LGD/HGD/EAC) were recruited. […] Separate channels were used to record fluorescence images from QRH*-Cy5 and KSP*-IRDye800 and from reflectance at λ=638 nm. The conventional white light illumination was shut off during collection of fluorescence images to prevent interference. […]

ErbB2 = target: T1, ErbB2 (Homo sapiens, UniProt P04626); test: Multiplexed in vivo imaging of distal esophagus in patients, KSP*-IRDye800 channel
T1 construct: topically administered into the distal esophagus using a standard spray catheter; from tissue; host or cells: distal esophagus mucosa of Barrett's patients, in vivo
Method: A multi-modal scanning fiber endoscope (mmSFE) was designed to collect fluorescence and reflectance concurrently. A custom fiber-coupled multi-laser system (SpectraTEC, Blue Sky Research) provides illumination at λex=638 and 785 nm concurrently through a single mode fiber (SMF) to excite QRH*-Cy5 and KSP*-IRDye800, respectively. A 0.4 mm diameter metal coated piezo tube actuator (Nagamine) generates a spiral scan pattern at an average maximum deflection angle of about 70°. Large core (500 μm diameter) multi-mode fibers (MMF) with high numerical aperture (NA=0.6, Mitsubishi Rayon) are arranged around the instrument periphery to maximize light collection.^38 The diameter and rigid length of the distal tip were designed to pass forward easily through the working channel of a standard upper endoscope.
The optics used to separate and collect fluorescence from each peptide was contained within the base station (VerAvanti). A notch filter (NF, # NF03-785E-25, Semrock) was used to attenuate the excitation beam at λ=785 nm. Reflectance at λ=[…] was deflected by a dichroic beam splitter (BS1, # FF652-Di02, Semrock) to a multi-pixel photon counter (MPPC1, SiPM, Hamamatsu) for detection. Fluorescence from QRH*-Cy5 was deflected by a second beam splitter (BS2, # Di02-R785, Semrock) centered at λ=785 nm through a bandpass filter (BPF, FF01-697/58, Semrock) that transmits between 668-726 nm for detection by MPPC2. Fluorescence from KSP*-IRDye800 passes through BS2 and long pass filter (LPF, # BLP01-785R, Semrock) with cutoff at λ=805 nm and is detected by MPPC3. Kinematic filter cubes (DFM1/M, ThorLabs) were used to mount and align the optics.
Consecutive patients referred to Michigan Medicine for either evaluation or therapy of Barrett's neoplasia (LGD/HGD/EAC) were recruited. Inclusion criteria included: 1) history of Barrett's neoplasia, 2) medically able to tolerate upper endoscopy, and 3) age over 18. Exclusion criteria included: 1) history of esophagectomy and 2) on active chemotherapy or radiation protocol. The multiplexed imaging study was approved by the University of Michigan IRB, and was registered online at ClinicalTrials.gov (NCT03589443). […] Separate channels were used to record fluorescence images from QRH*-Cy5 and KSP*-IRDye800 and from reflectance at λ=638 nm. The conventional white light illumination was shut off during collection of fluorescence images to prevent interference. […]
Video streams with greater than 30 consecutive images (1 second) that had negligible artifacts, including debris, bubbles, pooling, and conventional white light, were extracted from the original recordings. Single frames from the target regions with high contrast and minimum motion blur and distortion were selected for intensity quantification. The frames were separated into two fluorescence channels and a co-registered reflectance image. Target/background (T/B) ratios were calculated for each fluorescence image as follows. […] Fluorescence regions with high intensity were segmented using the Chan-Vese algorithm,^39 where an active contour model was evolved iteratively to minimize the energy function, Eq. 1, defined by the weighted sum of the 1) boundary length, 2) area, and variance of intensity 3) inside and 4) outside of the segmented region. […]

[5] = Phase 1 first-in-human safety study, oral administration; format: in vivo; conditions: n=25 human subjects, 0.5 mg or 1.2 mg
Method: A first-in-human study was performed to establish clinical evidence of safety for each peptide. An Investigational New Drug (IND) application (sponsor DKT) was prepared, and submitted for review to the US Food and Drug Administration (FDA). […] The study protocols were reviewed and approved by the Institutional Review Board (IRB) at the University of Michigan. These studies, including NCT02574858 (QRH*-Cy5) and NCT03161418 (KSP*-IRDye800), were registered online at ClinicalTrials.gov. A total of n=25 subjects was recruited for each study. All enrolled patients provided written informed consent. A dose escalation study was performed. The first n=3 subjects were administered 0.5 mg of peptide reconstituted in 5 mL of normal saline (0.9%) per oral. […] An electrocardiogram (EKG) was performed and vital signs were monitored. […] No images were collected during the safety study.

Sequence of vascular endothelial growth factor A (VEGFA) (P15692 207-311 limits assumed): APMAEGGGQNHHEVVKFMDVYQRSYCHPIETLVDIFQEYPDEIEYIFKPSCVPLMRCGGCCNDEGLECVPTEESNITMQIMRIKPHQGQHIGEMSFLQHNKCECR

In the case of “Bevacizumab: antibody specific for VEGFA, repurposed for diagnostic imaging by labeling with IRDye800”, the “increase in detection of early lesions using fluorescence compared with HD-WLE and NBI” value [1] is listed as “about 33%”.

With “Lys^1-Ser^2-Pro^3-Asn^4-Pro^5-Arg^6-Phe^7-Gly^8-Gly^9-Gly^10-Ser^11-Cys^12(IRDye800) [KSP*-IRDye800]” the “Blood tests (days 2 and 15)” value ([2]; KSP*-IRDye800 0.186 mg/kg) was “NAD”, the Clinical signs ([2]; KSP*-IRDye800 0.186 mg/kg) was “NAD” and the “Necropsy (days 2 and 15)” value ([2]; KSP*-IRDye800 0.186 mg/kg) was “NAD”. For the same substance, the “Observe (morbidity, mortality, injury, body weights, food and water consumption)” value (“Observe” below) ([2]; KSP*-IRDye800 0.186 mg/kg) was “NAD”, the Urinalysis ([2]; KSP*-IRDye800 0.186 mg/kg) was “NAD” and the “Blood tests (days 2 and 15)” value ([2]; KSP*-IRDye800 0.32 mg/kg) was “NAD”. The Clinical signs ([2]; KSP*-IRDye800 0.32 mg/kg) was “NAD”, the “Necropsy (days 2 and 15)” value ([2]; KSP*-IRDye800 0.32 mg/kg) was “NAD” and the “Observe” value ([2]; KSP*-IRDye800 0.32 mg/kg) was “NAD”. The Urinalysis ([2]; KSP*-IRDye800 0.32 mg/kg) was “NAD”, the “Blood tests (days 2 and 15)” value ([2]; KSP*-IRDye800 1.08 mg/kg) was “NAD” and the Clinical signs ([2]; KSP*-IRDye800 1.08 mg/kg) was “NAD”. The “Necropsy (days 2 and 15)” value ([2]; KSP*-IRDye800 1.08 mg/kg) was “NAD”, the “Observe” value ([2]; KSP*-IRDye800 1.08 mg/kg) was “NAD” and the Urinalysis ([2]; KSP*-IRDye800 1.08 mg/kg) was “NAD”. The “acute adverse effects in animal pharmacology/toxicology study (GLP)” value ([2]; single dose oral gavage) was “No acute adverse effects”, the Molecular ([3]; time 0) was 2397.6 and the Molecular ([3]; time 12) was 2397.5. The Molecular ([3]; time 24) was 2397.6, the Molecular ([3]; time 36) was 2397.6 and the “Purity (HPLC)” value ([3]; time 0) was 98.8%. The “Purity (HPLC)” value ([3]; time 6) was 98.8%, the “Purity (HPLC)” value ([3]; time 12) was 98.7% and the “Purity (HPLC)” value ([3]; time 18) was 98.9%. The “Purity (HPLC)” value ([3]; time 24) was 98.9%, the “Purity (HPLC)” value ([3]; time 30) was 98.7% and the “Purity (HPLC)” value ([3]; time 36) was 98.9%. For the same substance, the “fluorescence from regions of HGD and EAC in vivo” value [4] was “Increased fluorescence intensities”, the “mean (±SD) T/B ratio” value (ErbB2; HGD (n=7) and EAC (n=6)) was 1.68±0.24 and the T/B ratio (ErbB2; LGD (n=1)) was 1.14. For the same substance, the “mean (±SD) T/B ratio” value (ErbB2; SQ (n=3) and NDBE (n=6), topical, distal esophagus) was 1.28±0.14, the Accuracy (ErbB2; T/B ratio from KSP*-IRDye800 alone, HGD/EAC vs SQ/NDBE/LGD, LOOCV) was 83% and the AUC (ErbB2; T/B ratio from KSP*-IRDye800 alone, average of 1000 bootstrap samples) was 0.95. The “abnormalities in laboratory results, urinalysis, and EKG” value [5] was “No abnormalities” and the “adverse events (AE)” value [5] was “no adverse events”.
